# Results taken from ChEMBL document CHEMBL4483862, “Open-source discovery of chemical leads for next-generation chemoprotective antimalarials” (2018).
# System: Plasmodium berghei
# Experiment: Luciferase/luciferin-expressing antifolate-resistant parasites were used to infect a culture of HepG2 cells that were pre-incubated with compounds. Infected hepatocytes emit light due to the luciferase reaction. Assay results are presented as the percent inhibition of light emission compared to control. […]
# Format: functional
# Details: sporozoite; for IC50: read-out: LUCIFERASE INFECTION ASSAY - IC50; for IC90: read-out: LUCIFERASE INFECTION ASSAY - IC90
SMILES,IC50,IC90
N#CC(C#N)=NNc1ccc(-n2ccc(C(F)(F)F)n2)cc1,4.97 µM,> 10.8 µM
Cc1ccc(-c2oc3ccccc3c(=O)c2O)cc1,> 13.1 µM,> 13.1 µM
Cc1c(S(=O)(=O)c2ccc(Cl)cc2)csc1S(=O)(=O)N1CCOCC1,> 7.82 µM,> 7.82 µM
CSc1nccc(-c2sc(SC)c3c2CCCC3=O)n1,> 10.2 µM,> 10.2 µM
CC(C)S(=O)(=O)c1cnc(N2CCCCC2)nc1N,> 11.6 µM,> 11.6 µM
CC1(C)CC(=O)c2cnc(SCC(=O)Nc3ccc(F)cc3F)nc2C1,> 8.74 µM,> 8.74 µM
COC(=O)c1cc(OC)c(OC)cc1NS(=O)(=O)c1ccc(OC)cc1,3.35 µM,> 8.65 µM
CN1c2ccsc2C(=O)/C(=C/Nc2cccc(Cl)c2)S1(=O)=O,> 9.3 µM,> 9.3 µM
O=S(=O)(Oc1ccc(Cl)cc1)c1cc(S(=O)(=O)c2ccccc2)cs1,> 7.95 µM,> 7.95 µM
O=C(N/N=C/c1c2ccccc2cc2ccccc12)c1ccc(Br)cc1,> 8.18 µM,> 8.18 µM
CC(C)(C)S(=O)(=O)/C(C#N)=C/Nc1ccc(OC(F)(F)F)cc1,> 9.47 µM,> 9.47 µM
COc1ccc(Sc2sc(C(C)=O)cc2[N+](=O)[O-])cc1,> 10.7 µM,> 10.7 µM
CSc1sc(-c2ccn(S(=O)(=O)c3ccc(Cl)c(Cl)c3)n2)c2c1C(=O)CC(C)(C)C2,> 6.58 µM,> 6.58 µM
COC(=O)c1sccc1Oc1ccc(C(F)(F)F)cc1NC(=S)Nc1cc(Cl)cc(Cl)c1,> 6.33 µM,> 6.33 µM
COC(=O)c1scc(S(=O)(=O)Cc2ccco2)c1NN=C(C#N)C#N,> 8.72 µM,> 8.72 µM
CSc1cc(-c2sc3scc(C)c3c2C)n[nH]1,> 11.8 µM,> 11.8 µM
O=C(COc1ccccc1SCc1ccc(Cl)cc1)NNC(=O)c1cccc(C(F)(F)F)c1,> 6.67 µM,> 6.67 µM
N#C/C(=C\Nc1ccc(OC(F)(F)F)cc1)S(=O)(=O)c1ccc(Cl)cc1,> 8.19 µM,> 8.19 µM
O=C(NCc1ccc(S(=O)(=O)N2CCOCC2)s1)c1ccc(Cl)cc1,> 8.23 µM,> 8.23 µM
CCC(=O)/C(=N/Nc1ccccc1)C(=O)OC,> 14.1 µM,> 14.1 µM
CC1(C)CC(=O)C=C(SCC(=O)Nc2cccc(C(F)(F)F)c2)S1,> 8.79 µM,> 8.79 µM
Cc1ccc(N/C=C(\C#N)S(=O)(=O)c2ccc(Cl)cc2)cc1,> 9.92 µM,> 9.92 µM

SMILES,IC50,IC90
CSC(SC)=C(C#N)S(=O)(=O)C(C)C,> 13.1 µM,> 13.1 µM
Cc1ccc(S(=O)(=O)CCN2C(=O)CSC2=O)cc1,> 11 µM,> 11 µM
CSc1c(C#N)c(-c2ccc(Cl)cc2)nn1C(=O)c1ccccc1Cl,> 8.5 µM,> 8.5 µM
CO/N=C1\CC(C)(C)Cc2c(-c3ccn(C(=O)Nc4ccc(Cl)cc4)n3)sc(SC)c21,> 6.95 µM,> 6.95 µM
Cc1cc2ncc(-c3ccnc(SCC(=O)Nc4cccc(C(F)(F)F)c4)n3)c(C)n2n1,> 7.2 µM,> 7.2 µM
C=CCNC(=O)CSC1=CC(=O)CC(c2ccc(Cl)cc2)S1 (stereo unspecified),> 9.32 µM,> 9.32 µM
CC(=O)c1sc2sc(C#N)c(C)c2c1C,> 14 µM,> 14 µM
CCOC(=O)c1sc(SC)c2c1CC(c1ccccc1)CC2=O (stereo unspecified),> 9.52 µM,> 9.52 µM
COC(=O)c1scc(S(=O)(=O)c2ccc(Cl)cc2)c1C,> 9.98 µM,> 9.98 µM
COC(=O)c1cc(OC)c(OC)cc1NC(=O)c1ccccc1Br,> 8.37 µM,> 8.37 µM
CC(C)(C)CN=C(C#N)C(C#N)/N=C/c1cccc(Cl)c1 (stereo unspecified),> 11 µM,> 11 µM
OC(C#CC(O)(c1ccccc1)c1ccccc1)(c1ccccc1)c1ccccc1,> 8.45 µM,> 8.45 µM
C=S(=O)(NC(=O)c1ccc(-c2cc(C(F)(F)F)nn2C)s1)c1ccc(C)cc1 (stereo unspecified),> 7.72 µM,> 7.72 µM
O=[N+]([O-])c1cccc(-c2csc(CS(=O)(=O)c3cccs3)n2)c1,> 9.01 µM,> 9.01 µM
CCOC(=O)c1sc2sc(C(C)=O)c(C)c2c1C,> 11.7 µM,> 11.7 µM
CC1(C)CN=C(N(C(=O)Nc2ccc(Cl)c(Cl)c2)c2ccccc2)S1,> 8.37 µM,> 8.37 µM
CC1(C)CC(=O)C=C(Sc2nc3cc(Cl)ccc3s2)C1,> 10.2 µM,> 10.2 µM
CSc1sc(C(=O)N2CCOCC2)c2c1S(=O)(=O)N(C)c1ccccc1-2,> 8.04 µM,> 8.04 µM
CSc1sc(-c2ccnc(SCc3cccc(F)c3)n2)c2c1C(=O)CCC2,> 7.92 µM,> 7.92 µM
CSc1nnc(-c2csc(S(=O)(=O)Oc3cc(Cl)cc(Cl)c3)c2)n1C,> 7.56 µM,> 7.56 µM
CSc1sc(Br)c2c1/C(=N\O)CC(C)(C)C2,> 10.3 µM,> 10.3 µM
CO/N=C1\CC(C)(C)Cc2c(-c3ccn(S(=O)(=O)c4ccccc4Cl)n3)sc(SC)c21,> 6.65 µM,> 6.65 µM

SMILES,IC50,IC90
Cc1c(OCc2ccc([N+](=O)[O-])cc2)ccc2c1OC(C)(C)C=C2,0.667 µM,6.1 µM
C=Cc1c(S(C)(=O)=O)sc(C(N)=O)c1C,> 13.5 µM,> 13.5 µM
COC(=O)c1cc(OC)c(OC)cc1NS(=O)(=O)c1ccc(Cl)cc1,2.84 µM,2.91 µM
CSc1nc(N/C=C2/C(=O)c3ccccc3N(C)S2(=O)=O)nc(N(C)C)n1,> 8.12 µM,> 8.12 µM
O=c1cc(-c2ccccc2)[nH]c2cc(-c3cccs3)nn12,8.64 µM,> 11.2 µM
Cc1nn(Cc2nnc(SCC(=O)c3ccc(Cl)cc3)n2C)c(C)c1[N+](=O)[O-],> 7.84 µM,> 7.84 µM
CSc1nc(=NC(=O)NS(=O)(=O)Oc2ccc(Cl)cc2Cl)n2nc(C3CC3)cc2[nH]1,> 6.74 µM,> 6.74 µM
CSc1nccc(-c2ccc(S(=O)(=O)n3nc(C)c([N+](=O)[O-])c3C)s2)n1,> 8.02 µM,> 8.02 µM
CSc1nnc(-c2csc(S(=O)(=O)Nc3ccccc3Cl)c2)n1C,> 8.23 µM,> 8.23 µM
CSc1sc(C(=O)Nc2ccc(Cl)cc2)c2c1S(=O)(=O)N(C)c1ccccc1-2,> 7.32 µM,> 7.32 µM
Cc1ncc(S(=O)(=O)Cc2ccco2)c(N)n1,> 13 µM,> 13 µM
CC1(C)CC(=O)C=C(SCCS(=O)(=O)c2ccc(Cl)cc2)S1,> 8.75 µM,> 8.75 µM
COC(=O)c1sc(SC)c2c1CC(C)(C)C/C2=N\O,> 11 µM,> 11 µM
Cc1csc2sc(/C=N/Cc3cccs3)c(C)c12,> 11.3 µM,> 11.3 µM
Cc1ccc(NC(=S)NCc2ccccn2)cc1C,> 12.2 µM,> 12.2 µM
CCOC(=O)c1sc(S(=O)(=O)Cc2ccccc2)c2c1CC(C)(C)CC2=O,> 8.12 µM,> 8.12 µM
CN1c2ccsc2C(=O)/C(=C\Nc2ccccc2Cl)S1(=O)=O,> 9.3 µM,> 9.3 µM
CSc1sc(C(=O)Nc2cc(C(F)(F)F)cc(C(F)(F)F)c2)c(-c2ccc(Cl)cc2)c1C#N,0.839 µM,2.43 µM
CSC1=CC(=O)CC(C)(C)S1,> 17.5 µM,> 17.5 µM
N#CC(=N)C(C#N)NCc1ccccc1Sc1ccc(Cl)cc1 (stereo unspecified),> 9.68 µM,> 9.68 µM
Fc1ccc(Nc2n[nH]c(=S)s2)cc1,> 14.5 µM,> 14.5 µM
CNC(=O)c1ccc(-c2cc(C(F)(F)F)n(C)n2)s1,> 11.4 µM,> 11.4 µM

SMILES,IC50,IC90
CCOC(=O)c1sc(SCc2ccccc2)c(S(=O)(=O)C(C)C)c1N,> 8.26 µM,> 8.26 µM
COC(=O)C1=C(Nc2ccc(OS(=O)(=O)c3ccc(Cl)cc3)cc2)CSC1,> 7.75 µM,> 7.75 µM
Cc1nn(C)c2ncc(C(=O)Nc3ccc(F)c(Cl)c3)c(SC(C)C)c12,> 8.4 µM,> 8.4 µM
COC(=O)c1sccc1N/N=C(\C#N)S(=O)(=O)c1ccc(Cl)cc1,> 8.6 µM,> 8.6 µM
CC(C)(C)c1cc(-c2nccs2)ccc1/C=N/O,> 12.7 µM,> 12.7 µM
N#C/C(=N\Nc1ccc(OC(F)(F)F)cc1)S(=O)(=O)c1ccccn1,> 8.91 µM,> 8.91 µM
COc1ccc(C(OC[C@H]2O[C@@H](n3cnc4c(N)ncnc43)CC2O)(c2ccccc2)c2ccc(OC)cc2)cc1 (stereo partly specified),> 5.96 µM,> 5.96 µM
O=C(O)C1CSC(c2ccccc2)N1 (stereo unspecified),> 15.8 µM,> 15.8 µM
COC(=O)c1sccc1Oc1ccc(C(F)(F)F)cc1NC(=O)Nc1c(Cl)cc(Cl)cc1Cl,> 6.11 µM,> 6.11 µM
Cc1csc2sc(C(=O)N3CCOCC3)c(C)c12,> 11.7 µM,> 11.7 µM
CCOC(=O)c1sc(N(NC(=O)c2cc(C(F)(F)F)cc(C(F)(F)F)c2)C(=O)c2cc(C(F)(F)F)cc(C(F)(F)F)c2)c2c1CC(C)(C)CC2=O,> 4.33 µM,> 4.33 µM
CSc1sc(-c2ccnc(SCC(=O)c3ccc(Cl)cc3)n2)c2c1C(=O)CCC2,> 7.16 µM,> 7.16 µM
Cc1nn(S(=O)(=O)c2ccc(-c3cc(C(F)(F)F)n(C)n3)s2)c(C)c1Br,> 7.03 µM,> 7.03 µM
CSc1sc(-c2nc(C(C)(C)C)cs2)c(C)c1C(C)=O,> 10.1 µM,> 10.1 µM
Cc1cc(NNC(=O)c2ccccc2Cl)nc2c1c(-c1cccs1)nn2C,> 8.29 µM,> 8.29 µM
CCOC(=O)c1csc(-c2sc(SC)c(C(C)=O)c2C)n1,> 9.66 µM,> 9.66 µM
CNC(=O)c1sc2scc(C)c2c1C,> 14.6 µM,> 14.6 µM
COC(=O)c1scc(S(=O)(=O)Cc2ccco2)c1N/N=C(\C#N)S(=O)(=O)C(C)C,> 7.18 µM,> 7.18 µM
CC(C)CC(NC(=O)Cc1ccsc1)C(=O)N/N=C/c1cccs1 (stereo unspecified),> 9.08 µM,> 9.08 µM
CC(C)c1ccc(NC(=O)CSc2ncc3c(n2)CC(C)(C)CC3=O)cc1,> 8.6 µM,> 8.6 µM
Cc1c(OCc2ccc(Br)cc2)ccc2c1OC(C)(C)C=C2,0.199 µM,0.652 µM
N#C/C(=C\Nc1cccc([N+](=O)[O-])c1)S(=O)(=O)c1ccc(Cl)cc1,> 9.07 µM,> 9.07 µM
